Measured values taken from patent US10195196B2, “1,4-disubstituted pyridazine analogs there of and methods for treating SMN-deficiency-related conditions” (NOVARTIS AG, priority 2012, dated 2019).

Tested on: SMN protein
Experiment: cellular SMN ELISA (SMN protein elevation)
Format: cell-based
Conditions: myoblast cell line from SMNdelta7 mouse model, 24 hours treatment; for SMN activity Fold: fold activation over DMSO control
In short: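 Readout is fold SMN elevation versus DMSO plus EC50, measured by anti-SMN capture ELISA with 450 nm absorbance. Lysates came from a myoblast line of the SMNdelta7 mouse model after 24 h compound exposure, with dose ranges of 20 nM–10 μM (condition 1) or 100 pM–10 μM (condition 2).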

[1] = ELISA condition 2: compound concentration 100 pM-10 uM
[2] = ELISA condition 1: compound concentration range 20 nM-10 uM

Row | EC50 [2] | SMILES | EC50 [1] | SMN activity Fold [1] | SMN activity Fold [2]
1 | – | COc1cccc(-c2cc(O)c(-c3ccc(N(C)C4CC(C)(C)NC(C)(C)C4)nn3)c(OC)c2)c1 [Example 26-5, 3′,5-Dimethoxy-4-(6-(methyl(2,2,6,6-tetramethylpiperidin-4-yl)amino)pyridazin-3-yl)-[1,1′-biphenyl]-3-ol] | 313 nM | 2.14 Fold | –
2 | – | CN(c1ccc(-c2c(O)cc(-c3cc[nH]c(=O)c3)cc2F)nn1)C1CC(C)(C)NC(C)(C)C1 [Example 40-2, 4-(3-fluoro-5-hydroxy-4-(6-(methyl(2,2,6,6-tetramethylpiperidin-4-yl)amino)pyridazin-3-yl)phenyl)pyridin-2(1H)-one] | 25 nM | 2.78 Fold | –
3 | – | CN(c1ccc(-c2cc3ccc(OCCCO)cc3cc2O)nn1)C1CC(C)(C)NC(C)(C)C1 [Example 20-7, 7-(3-hydroxypropoxy)-3-(6-(methyl(2,2,6,6-tetramethylpiperidin-4-yl)amino)pyridazin-3-yl)naphthalen-2-ol] | 7 nM | 2.75 Fold | –
4 | – | CN(c1ccc(-c2ccc3cccnc3c2)nn1)C1CC(C)(C)NC(C)(C)C1 [Example 1-12, N-methyl-6-(quinolin-7-yl)-N-(2,2,6,6-tetramethyl-piperidin-4-yl)pyridazin-3-amine] | 367 nM | 2.54 Fold | –
5 | 2730 nM | CN1C(C)(C)CC(Nc2ccc(-c3cc4ccccc4s3)nn2)CC1(C)C [Example 7-1, 6-(benzo[b]thiophen-2-yl)-N-(1,2,2,6,6-pentamethylpiperidin-4-yl)pyridazin-3-amine] | – | – | 2.54 Fold
6 | – | CN(c1ccc(-c2c(O)cc(Cl)cc2F)nn1)C1CC(C)(C)NC(C)(C)C1 [Example 40-6, 5-chloro-3-fluoro-2-(6-(methyl(2,2,6,6-tetramethylpiperidin-4-yl)amino)pyridazin-3-yl)phenol] | 208 nM | 2.16 Fold | –
7 | – | Oc1cc2ccccc2cc1-c1ccc(C2=CCNCC2)nn1 [Example 19-3, 3-(6-(1,2,3,6-tetra-hydropyridin-4-yl)pyridazin-3-yl)naphthalen-2-ol] | 155 nM | 2.19 Fold | –
8 | – | CC1(C)CC(Oc2ccc(-c3ccc(-c4ccnc(O)c4)cc3O)nn2)CC(C)(C)N1 [Example 41-9, 4-(3-hydroxy-4-(6-((2,2,6,6-tetramethylpiperidin-4-yl)oxy)pyridazin-3-yl)phenyl)pyridin-2-ol] | 72 nM | 4.2 Fold | –
9 | – | CC1(C)CC(Oc2ccc(-c3cc(-c4ccnc(O)c4)ccc3O)nn2)CC(C)(C)N1 [Example 32-9, 4-(4-hydroxy-3-(6-((2,2,6,6-tetramethylpiperidin-4-yl)oxy)pyridazin-3-yl)phenyl)pyridin-2-ol] | 485 nM | 2.90 Fold | –
10 | – | CC1(C)C=C(c2ccc(-c3cc4ccc(O)cc4cc3O)nn2)CC(C)(C)N1 [Example 19-5, 3-(6-(2,2,6,6-tetramethyl-1,2,3,6-tetrahydropyridin-4-yl)pyridazin-3-yl)naphthalene-2,7-diol] | 402 nM | 2.58 Fold | –
11 | – | CC1(C)CC(Oc2ccc(-c3ccc4ccncc4c3)nn2)CC(C)(C)N1 [Example 1-10, 7-(6-((2,2,6,6-tetramethylpiperidin-4-yl)oxy)pyridazin-3-yl)isoquinoline] | 1100 nM | 2.75 Fold | –
12 | – | Oc1cc(-n2cccn2)ccc1-c1ccc(C2CCNCC2)nn1 [Example 19-2, 2-(6-piperidin-4-yl-pyridazin-3-yl)-5-pyrazol-1-yl-phenol] | 402 nM | 2.73 Fold | –
13 | – | COCCCOc1ccc2cc(-c3ccc(N(C)C4CC(C)(C)NC(C)(C)C4)nn3)c(O)cc2c1 [Example 20-8, 7-(3-methoxypropoxy)-3-(6-(methyl(2,2,6,6-tetramethylpiperidin-4-yl)amino)pyridazin-3-yl)naphthalen-2-ol] | 30 nM | 2.61 Fold | –
14 | – | CC1(C)CN(c2ccc(-c3ccc(-n4cccn4)cc3O)nn2)CCN1 [Example 18-15, 2-[6-(3,3-dimethyl-piperazin-1-yl)-pyridazin-3-yl]-5-pyrazol-1-yl-phenol] | 714 nM | 2.30 Fold | –
15 | – | CN(c1ccc(-c2cc3c(cc2O)C(=O)CC3)nn1)C1CC(C)(C)NC(C)(C)C1 [Example 35-1, 6-hydroxy-5-(6-(methyl(2,2,6,6-tetramethylpiperidin-4-yl)amino)pyridazin-3-yl)-2,3-dihydro-1H-inden-1-one] | 27 nM | 2.79 Fold | –
16 | – | CN(c1ccc(-c2ccc(-c3ccn(C4CC4)c(=O)c3)cc2O)nn1)C1CC(C)(C)NC(C)(C)C1 [Example 41-14, 1-cyclopropyl-4-(3-hydroxy-4-(6-(methyl(2,2,6,6-tetramethylpiperidin-4-yl)amino)pyridazin-3-yl)phenyl)pyridin-2(1H)-one] | 84 nM | 3.21 Fold | –
17 | – | CN(c1ccc(-c2ccc(-c3c[nH]cn3)cc2O)nn1)C1CC(C)(C)NC(C)(C)C1 [Example 42-2, 5-(1H-imidazol-4-yl)-2-(6-(methyl(2,2,6,6-tetramethylpiperidin-4-yl)amino)pyridazin-3-yl)phenol] | 26 nM | 2.06 Fold | –
18 | – | CN(c1ccc(-c2ccc(-c3cccc4cn[nH]c34)cc2O)nn1)C1CC(C)(C)NC(C)(C)C1 [Example 33-1, 5-(1H-indazol-7-yl)-2-(6-(methyl(2,2,6,6-tetramethylpiperidin-4-yl)amino)pyridazin-3-yl)phenol] | 349 nM | 2.29 Fold | –
19 | – | CN(c1ccc(-c2ccc(-c3ccc(=O)n(C)c3)cc2O)nn1)C1CC(C)(C)NC(C)(C)C1 [Example 41-6, 5-(3-hydroxy-4-(6-(methyl(2,2,6,6-tetramethylpiperidin-4-yl)amino)pyridazin-3-yl)phenyl)-1-methylpyridin-2(1H)-one] | 10 nM | 2.67 Fold | –
20 | – | CN(c1ccc(-c2cccc(F)c2O)nn1)C1CC(C)(C)NC(C)(C)C1 [Example 3-8, 2-fluoro-6-{6-[methyl-(2,2,6,6-tetramethyl-piperidin-4-yl)-amino]-pyridazin-3-yl}-phenol] | 1580 nM | 2.72 Fold | –
21 | – | Cn1ccc(-c2ccc(O)c(-c3ccc(OC4CC(C)(C)NC(C)(C)C4)nn3)c2)cc1=O [Example 32-8, 4-(4-hydroxy-3-(6-((2,2,6,6-tetramethylpiperidin-4-yl)oxy)pyridazin-3-yl)phenyl)-1-methylpyridin-2(1H)-one] | 433 nM | 2.61 Fold | –
22 | – | Cn1ccc(-c2ccc(-c3ccc(N4CCC5(CCCNC5)C4)nn3)c(O)c2)cc1=O (centres unmarked) [Example 43-7, 4-(4-(6-(2,7-diazaspiro[4.5]decan-2-yl)pyridazin-3-yl)-3-hydroxyphenyl)-1-methylpyridin-2(1H)-one] | 156 nM | 2.42 Fold | –
23 | – | CN(c1ccc(-c2cc3ccc(C4CCOCC4)cc3cc2O)nn1)C1CC(C)(C)NC(C)(C)C1 [Example 24-9, 3-(6-(methyl(2,2,6,6-tetramethylpiperidin-4-yl)amino)pyridazin-3-yl)-7-(tetrahydro-2H-pyran-4-yl)naphthalen-2-ol] | 338 nM | 2.65 Fold | –
24 | – | COc1ccc(-c2ccc(-c3ccc(N(C)C4CC(C)(C)NC(C)(C)C4)nn3)c(O)c2)cn1 [Example 41-4, 5-(6-methoxypyridin-3-yl)-2-(6-(methyl(2,2,6,6-tetramethylpiperidin-4-yl)amino)pyridazin-3-yl)phenol] | 80 nM | 3.29 Fold | –
25 | – | CC1(C)CC(Cc2ccc(-c3ccc(-n4cccn4)cc3O)nn2)CC(C)(C)N1 [Example 21-2, 5-(1H-pyrazol-1-yl)-2-(6-((2,2,6,6-tetramethylpiperidin-4-yl)methyl)pyridazin-3-yl)phenol] | 206 nM | 2.69 Fold | –
26 | 660 nM | Oc1cc(-n2cccn2)ccc1-c1ccc(NC2CNC2)nn1 [Example 18-3, 2-[6-(azetidin-3-ylamino)-pyridazin-3-yl]-5-pyrazol-1-yl-phenol] | – | – | 1.95 Fold
27 | – | Cc1cc(-c2ccc(-c3ccc(N(C)C4CC(C)(C)NC(C)(C)C4)nn3)c(O)c2)ccn1 [Example 41-20, 2-(6-(methyl(2,2,6,6-tetramethylpiperidin-4-yl)amino)pyridazin-3-yl)-5-(2-methylpyridin-4-yl)phenol] | 32 nM | 2.63 Fold | –
28 | 1180 nM | Oc1cc(-n2cccn2)ccc1-c1ccc(N2CCC3(CC2)CNC3)nn1 [Example 18-9, 2-[6-(2,7-diaza-spiro[3.5]non-7-yl)-pyridazin-3-yl]-5-pyrazol-1-yl-phenol] | – | – | 1.93 Fold
29 | – | CC1(N)CCN(c2ccc(-c3ccc(-n4cccn4)cc3O)nn2)CC1 [Example 18-12, 2-[6-(4-amino-4-methyl-piperidin-1-yl)-pyridazin-3-yl]-5-pyrazol-1-yl-phenol] | 792 nM | 2.62 Fold | –

Row | SMILES | EC50 [2] | EC50 [1] | SMN activity Fold [1] | SMN activity Fold [2]
30 | CN(c1ccc(-c2ccc(-n3cccn3)nc2)nn1)C1CC(C)(C)NC(C)(C)C1 [Example 1-19, methyl-[6-(6-pyrazol-1-yl-pyridin-3-yl)-pyridazin-3-yl]-(2,2,6,6-tetramethyl-piperidin-4-yl)-amine] | 740 nM | – | – | 3.10 Fold
31 | CN(c1ccc(-c2cc(F)c(F)cc2O)nn1)C1CC(C)(C)NC(C)(C)C1 [Example 3-12, 4,5-difluoro-2-{6-[methyl-(2,2,6,6-tetramethyl-piperidin-4-yl)-amino]-pyridazin-3-yl}-phenol] | 129 nM | – | – | 2.70 Fold
